Measurements reported in patent publication US20260285850A1, “SUBSTITUTED OXAZOLIDINONES AND IMIDAZOLINONES AS HERBICIDES” (FMC CORPORATION, priority 2023, published 2026).

Assays:
Assay type in all cases: in vivo
[1] = system: barnyardgrass (Echinochloa crus-galli); experiment: Test A preemergence soil spray, visual injury rating 0-100; conditions: 10 days, 0 = no effect, 100 = complete control
How it was run: (§1)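 Directed preemergence spray onto seeded soil or postemergence spray onto 2-10 cm plants (loam plus sand); compound carried in surfactant-containing non-phytotoxic solvent. Injury rated by eye after 10 d greenhouse growth; 0 = no effect, 100 = complete control.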

[2] = system: blackgrass (Alopecurus myosuroides); experiment: as above; conditions: 10 days, 0 = no effect, 100 = complete control
How it was run: as §1

corn (Zea mays) [3] = experiment: as above; conditions: 10 days, 0 = no effect, 100 = complete control
How it was run: as §1

[4] = system: green foxtail (Setaria viridis); experiment: as above; conditions: 10 days, 0 = no effect, 100 = complete control
How it was run: as §1

kochia (Bassia scoparia) [5] = experiment: as above; conditions: 10 days, 0 = no effect, 100 = complete control
How it was run: as §1

[6] = system: oat, wild (wild oat, Avena fatua); experiment: as above; conditions: 10 days, 0 = no effect, 100 = complete control
How it was run: as §1

[7] = system: palmer (palmer amaranth, palmer pigweed, Amaranthus palmeri); experiment: as above; conditions: 10 days, 0 = no effect, 100 = complete control
How it was run: as §1

[8] = system: ragweed (common ragweed, Ambrosia artemisiifolia); experiment: as above; conditions: 10 days, 0 = no effect, 100 = complete control
How it was run: as §1

[9] = system: ryegrass, Italian (italian ryegrass, Lolium multiflorum); experiment: as above; conditions: 10 days, 0 = no effect, 100 = complete control
How it was run: as §1

soybean (Glycine max) [10] = experiment: as above; conditions: 10 days, 0 = no effect, 100 = complete control
How it was run: as §1

[11] = system: wheat (Triticum aestivum); experiment: as above; conditions: 10 days, 0 = no effect, 100 = complete control
How it was run: as §1

[12] = system: barnyardgrass (Echinochloa crus-galli); experiment: Test A postemergence application, visual injury rating 0-100; conditions: Postemergence, 10 days, 0 is no effect, 100 is complete control
How it was run: as §1

[13] = system: blackgrass (Alopecurus myosuroides); experiment: as above; conditions: Postemergence, 10 days, 0 is no effect, 100 is complete control
How it was run: as §1

corn (Zea mays) [14] = experiment: as above; conditions: Postemergence, 10 days, 0 is no effect, 100 is complete control
How it was run: as §1

[15] = system: galium (catchweed bedstraw, Galium aparine); experiment: as above; conditions: Postemergence, 10 days, 0 is no effect, 100 is complete control
How it was run: as §1

[16] = system: green foxtail (Setaria viridis); experiment: as above; conditions: Postemergence, 10 days, 0 is no effect, 100 is complete control
How it was run: as §1

[17] = system: horseweed (Erigeron canadensis); experiment: as above; conditions: Postemergence, 10 days, 0 is no effect, 100 is complete control
How it was run: as §1

kochia (Bassia scoparia) [18] = experiment: as above; conditions: Postemergence, 10 days, 0 is no effect, 100 is complete control
How it was run: as §1

[19] = system: oat, wild (wild oat, Avena fatua); experiment: as above; conditions: Postemergence, 10 days, 0 is no effect, 100 is complete control
How it was run: as §1

[20] = system: palmer (palmer amaranth, palmer pigweed, Amaranthus palmeri); experiment: as above; conditions: Postemergence, 10 days, 0 is no effect, 100 is complete control
How it was run: as §1

[21] = system: ragweed (common ragweed, Ambrosia artemisiifolia); experiment: as above; conditions: Postemergence, 10 days, 0 is no effect, 100 is complete control
How it was run: as §1

[22] = system: ryegrass, Italian (italian ryegrass, Lolium multiflorum); experiment: as above; conditions: Postemergence, 10 days, 0 is no effect, 100 is complete control
How it was run: as §1

soybean (Glycine max) [23] = experiment: as above; conditions: Postemergence, 10 days, 0 is no effect, 100 is complete control
How it was run: as §1

[24] = system: wheat (Triticum aestivum); experiment: as above; conditions: Postemergence, 10 days, 0 is no effect, 100 is complete control
How it was run: as §1

[25] = system: barnyardgrass (Echinochloa crusgalli); experiment: Test B flooded paddy test, visual plant response rating 0-100; conditions: 250 g ai/ha, Flood, applied to paddy water, evaluated after 13 days
How it was run: (§2)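 Treatment occurs at the 2-leaf stage by adding compound to floodwater standing 3 cm above the soil, a level kept for the whole test. Plants stay in the greenhouse 13 days before visual comparison with controls.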

[26] = system: ducksalad (Heteranthera limosa); experiment: as above; conditions: 250 g ai/ha, Flood, applied to paddy water, evaluated after 13 days
How it was run: as §2

rice (Oryza sativa) = experiment: as above; conditions: 250 g ai/ha, Flood, applied to paddy water, evaluated after 13 days
How it was run: as §2

[27] = system: sedge, umbrella (small-flower umbrella sedge, Cyperus difformis); experiment: as above; conditions: 250 g ai/ha, Flood, applied to paddy water, evaluated after 13 days
How it was run: as §2

SMILES: COC(=O)C1C=CC(NC(=O)C2(C)CN(c3cc(Cl)cc(Cl)c3)C(=O)O2)C1 (stereo not shown) [Compound 42]
- Barnyardgrass plant response rating (0 to 100 scale) ([1]; 125 g ai/ha): 100
- Barnyardgrass plant response rating (0 to 100 scale) ([1]; 500 g ai/ha): 100
- Blackgrass plant response rating (0 to 100 scale) ([2]; 125 g ai/ha): 90
- Blackgrass plant response rating (0 to 100 scale) ([2]; 500 g ai/ha): 100
- Corn plant response rating (0 to 100 scale) (corn (Zea mays) [3]; 125 g ai/ha): 90
- Corn plant response rating (0 to 100 scale) (corn (Zea mays) [3]; 500 g ai/ha): 90
- Foxtail, Green plant response rating (0 to 100 scale) ([4]; 125 g ai/ha): 100
- Foxtail, Green plant response rating (0 to 100 scale) ([4]; 500 g ai/ha): 100
- Kochia plant response rating (0 to 100 scale) (kochia (Bassia scoparia) [5]; 125 g ai/ha): 90
- Kochia plant response rating (0 to 100 scale) (kochia (Bassia scoparia) [5]; 500 g ai/ha): 90
- Oat, Wild plant response rating (0 to 100 scale) ([6]; 125 g ai/ha): 90
- Oat, Wild plant response rating (0 to 100 scale) ([6]; 500 g ai/ha): 90
- Amaranth, Palmer plant response rating (0 to 100 scale) ([7]; 125 g ai/ha): 100
- Amaranth, Palmer plant response rating (0 to 100 scale) ([7]; 500 g ai/ha): 100
- Ragweed plant response rating (0 to 100 scale) ([8]; 125 g ai/ha): 20
- Ragweed plant response rating (0 to 100 scale) ([8]; 500 g ai/ha): 80
- Ryegrass, Italian plant response rating (0 to 100 scale) ([9]; 125 g ai/ha): 90
- Ryegrass, Italian plant response rating (0 to 100 scale) ([9]; 500 g ai/ha): 100
- Soybean plant response rating (0 to 100 scale) (soybean (Glycine max) [10]; 125 g ai/ha): 40
- Soybean plant response rating (0 to 100 scale) (soybean (Glycine max) [10]; 500 g ai/ha): 70
- Wheat plant response rating (0 to 100 scale) ([11]; 125 g ai/ha): 90
- Wheat plant response rating (0 to 100 scale) ([11]; 500 g ai/ha): 90
- Barnyardgrass plant response rating (0 to 100 scale) ([12]; 125 g ai/ha): 100
- Barnyardgrass plant response rating (0 to 100 scale) ([12]; 500 g ai/ha): 100
- Blackgrass plant response rating (0 to 100 scale) ([13]; 125 g ai/ha): 100
- Blackgrass plant response rating (0 to 100 scale) ([13]; 500 g ai/ha): 100
- Corn plant response rating (0 to 100 scale) (corn (Zea mays) [14]; 125 g ai/ha): 100
- Corn plant response rating (0 to 100 scale) (corn (Zea mays) [14]; 500 g ai/ha): 100
- Galium plant response rating (0 to 100 scale) ([15]; 125 g ai/ha): 70
- Galium plant response rating (0 to 100 scale) ([15]; 500 g ai/ha): 80
- Foxtail, Green plant response rating (0 to 100 scale) ([16]; 125 g ai/ha): 90
- Foxtail, Green plant response rating (0 to 100 scale) ([16]; 500 g ai/ha): 90
- Horseweed plant response rating (0 to 100 scale) ([17]; 125 g ai/ha): 80
- Horseweed plant response rating (0 to 100 scale) ([17]; 500 g ai/ha): 90
- Kochia plant response rating (0 to 100 scale) (kochia (Bassia scoparia) [18]; 125 g ai/ha): 80
- Kochia plant response rating (0 to 100 scale) (kochia (Bassia scoparia) [18]; 500 g ai/ha): 80
- Oat, Wild plant response rating (0 to 100 scale) ([19]; 125 g ai/ha): 90
- Oat, Wild plant response rating (0 to 100 scale) ([19]; 500 g ai/ha): 90
- Amaranth, Palmer / Pigweed, Palmer plant response rating (0 to 100 scale) ([20]; 125 g ai/ha): 100
- Amaranth, Palmer / Pigweed, Palmer plant response rating (0 to 100 scale) ([20]; 500 g ai/ha): 100
- Ragweed plant response rating (0 to 100 scale) ([21]; 125 g ai/ha): 70
- Ragweed plant response rating (0 to 100 scale) ([21]; 500 g ai/ha): 80
- Ryegrass, Italian plant response rating (0 to 100 scale) ([22]; 125 g ai/ha): 90
- Ryegrass, Italian plant response rating (0 to 100 scale) ([22]; 500 g ai/ha): 90
- Soybean plant response rating (0 to 100 scale) (soybean (Glycine max) [23]; 125 g ai/ha): 90
- Soybean plant response rating (0 to 100 scale) (soybean (Glycine max) [23]; 500 g ai/ha): 80
- Wheat plant response rating (0 to 100 scale) ([24]; 125 g ai/ha): 90
- Wheat plant response rating (0 to 100 scale) ([24]; 500 g ai/ha): 90
- Plant response rating, Barnyardgrass (0 to 100 scale, 0 is no effect and 100 is complete control) [25]: 95
- Plant response rating, Ducksalad (0 to 100 scale, 0 is no effect and 100 is complete control) [26]: 90
- Plant response rating, Rice (0 to 100 scale, 0 is no effect and 100 is complete control) (rice (Oryza sativa)): 15
- Plant response rating, Sedge, Umbrella (0 to 100 scale, 0 is no effect and 100 is complete control) [27]: 95
